From the supplement of paper PMC10307832

Key:
Test in all cases: relative viability (nuclei count vs DMSO), 5 days (fraction); higher = more cells survive
[1] = compound: CN1C=C(C2=CC=CC=C21)/C=C\3/C4=C(C=CC=N4)NC3=O + CC(=O)c1c(C)c2cnc(Nc3ccc(N4CCNCC4)cn3)nc2n(C2CCCC2)c1=O [Palbociclib] (partner 0.5 µM)
How it was run: (§1)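 Dosing by pin tool came one day after lung cancer cell lines were seeded in 1536-well plates, using either one drug or a fixed anchor-drug dose plus five library-drug doses (not always all listed) in √10 steps. After 5 days, nuclei were counted on 4× images. Relative viability is treated-well nuclei count divided by vehicle-well nuclei count, and values are medians of duplicate plates.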

[2] = compound: CN1C=C(C2=CC=CC=C21)/C=C\3/C4=C(C=CC=N4)NC3=O + Cc1nc(Nc2ncc(C(=O)Nc3c(C)cccc3Cl)s2)cc(N2CCN(CCO)CC2)n1 [Dasatinib] (partner 0.075 µM)
How it was run: as §1

Trametinib + Crizotinib = compound: CC(=O)Nc1cccc(-n2c(=O)n(C3CC3)c(=O)c3c(Nc4ccc(I)cc4F)n(C)c(=O)c(C)c32)c1 [Trametinib] + C[C@@H](Oc1cc(-c2cnn(C3CCNCC3)c2)cnc1N)c1c(Cl)ccc(F)c1Cl [Crizotinib] (partner 1 µM)
How it was run: as §1

[3] = compound: CN1C=C(C2=CC=CC=C21)/C=C\3/C4=C(C=CC=N4)NC3=O + O=C(c1cc(Cc2n[nH]c(=O)c3ccccc23)ccc1F)N1CCN(C(=O)C2CC2)CC1 [Olaparib] (partner 8 µM)
How it was run: as §1

Cell Line | relative viability ([1]; first compound 0.02 µM) | relative viability ([1]; first compound 0.06325 µM) | relative viability ([1]; first compound 0.2 µM) | relative viability ([1]; first compound 0.6325 µM) | relative viability ([1]; first compound 2 µM) | relative viability ([2]; first compound 0.02 µM) | relative viability ([2]; first compound 0.06325 µM) | relative viability ([2]; first compound 0.2 µM) | relative viability ([2]; first compound 0.6325 µM) | relative viability ([2]; first compound 2 µM) | relative viability (Trametinib + Crizotinib; first compound 0.0025 µM) | relative viability (Trametinib + Crizotinib; first compound 0.007906 µM) | relative viability (Trametinib + Crizotinib; first compound 0.025 µM) | relative viability (Trametinib + Crizotinib; first compound 0.07906 µM) | relative viability (Trametinib + Crizotinib; first compound 0.25 µM) | relative viability ([3]; first compound 0.02 µM) | relative viability ([3]; first compound 0.06325 µM) | relative viability ([3]; first compound 0.2 µM) | relative viability ([3]; first compound 0.6325 µM) | relative viability ([3]; first compound 2 µM)
NCI-H1666 | 0.604 | 0.62 | 0.634 | 0.574 | 0.632 | 0.892 | 0.822 | 0.79 | 0.758 | 0.81 | 0.74 | 0.766 | 0.72 | 0.586 | 0.394 | 0.749 | 0.735 | 0.706 | 0.708 | 0.714
NCI-H1734 | 0.316 | 0.372 |  | 0.334 | 0.345 | 0.453 | 0.408 |  | 0.455 | 0.517 | 0.644 | 0.622 |  | 0.493 | 0.285 | 0.355 | 0.596 |  | 0.588 | 0.631
NCI-H1755 | 0.434 | 0.463 | 0.431 | 0.433 | 0.427 | 0.365 | 0.411 | 0.37 | 0.402 | 0.351 | 0.807 | 0.789 | 0.706 | 0.772 | 0.691 | 0.903 | 0.946 | 0.83 | 0.699 | 0.681
NCI-H1792 | 0.624 | 0.679 | 0.656 |  | 0.559 | 0.816 | 0.93 | 0.74 |  | 0.66 | 0.92 | 0.949 | 0.738 | 0.553 | 0.488 | 0.502 | 0.349 | 0.32 | 0.254 | 0.376
NCI-H1915 | 0.489 | 0.511 | 0.533 | 0.598 | 0.721 | 0.331 | 0.295 | 0.274 | 0.338 | 0.31 | 0.872 | 0.756 | 0.568 | 0.333 | 0.231 | 0.259 | 0.257 | 0.28 | 0.304 | 0.257
NCI-H1944 | 0.28 | 0.351 |  | 0.267 | 0.314 | 0.214 | 0.215 |  | 0.194 | 0.217 | 1 | 0.763 | 0.762 | 0.629 | 0.326 | 0.382 | 0.368 |  | 0.377 | 0.403
NCI-H1975 | 0.623 | 0.361 | 0.45 | 0.442 | 0.504 | 0.382 | 0.38 | 0.333 | 0.279 | 0.239 | 0.965 | 0.937 | 0.757 | 0.499 | 0.381 | 0.803 | 0.737 | 0.674 | 0.61 | 0.47
NCI-H1993 | 0.606 | 0.594 | 0.656 | 0.455 | 1.19 | 0.537 | 0.59 | 0.523 | 0.468 | 0.951 | 0.796 | 0.716 | 0.797 | 0.674 | 0.662 | 0.781 | 1.09 | 1.06 | 0.972 | 0.966
NCI-H2009 | 0.189 | 0.198 | 0.202 | 0.198 | 0.201 | 0.265 | 0.295 | 0.261 | 0.333 | 0.315 | 1.08 | 0.586 | 0.336 | 0.301 | 0.266 | 0.598 | 0.636 | 0.703 | 0.677 | 0.604
NCI-H2023 | 0.412 | 0.369 |  | 0.45 | 0.372 | 0.638 | 0.566 | 0.349 | 0.458 | 0.381 | 0.597 | 0.543 | 0.475 | 0.442 | 0.247 | 0.451 | 0.53 | 0.566 | 0.432 | 0.517
NCI-H2085 | 0.452 | 0.473 | 0.508 | 0.471 | 0.461 | 0.248 | 0.273 | 0.195 | 0.227 | 0.204 | 0.793 | 0.69 | 0.698 | 0.688 | 0.63 | 0.806 | 0.75 | 0.86 | 0.857 | 0.847
NCI-H2087 | 0.243 | 0.178 | 0.229 | 0.199 | 0.237 | 0.868 | 0.843 | 0.838 | 0.824 | 0.877 | 0.888 | 0.667 | 0.495 | 0.33 | 0.289 | 0.513 | 0.56 | 0.62 | 0.511 | 0.653
NCI-H2126 | 0.325 | 0.31 | 0.348 | 0.319 | 0.326 | 0.548 | 0.534 | 0.547 | 0.545 | 0.432 | 1.01 | 0.959 | 0.788 | 0.832 | 0.749 | 0.888 | 0.853 | 0.919 | 0.971 | 0.883
NCI-H2170 | 0.293 | 0.408 | 0.349 | 0.392 | 0.434 | 0.442 | 0.581 | 0.525 | 0.468 | 0.597 | 1.16 | 1.07 |  | 1.1 | 1.04 | 0.652 | 0.559 | 0.628 | 0.517 | 0.578
NCI-H2228 | 0.744 | 0.572 | 0.394 | 0.769 | 0.906 | 0.524 | 0.458 |  |  | 0.485 | 0.33 | 0.398 | 0.438 | 0.254 | 0.247 | 0.951 | 0.534 | 0.579 | 0.476 | 0.768
NCI-H2347 | 0.418 | 0.41 | 0.398 | 0.395 | 0.416 |  | 0.296 | 0.222 | 0.302 | 0.938 | 0.698 | 0.476 | 0.252 | 0.464 | 0.433 | 0.491 | 0.503 | 0.539 | 0.565 | 0.616
NCI-H2405 | 0.576 | 0.526 | 0.524 | 0.535 | 0.541 | 0.253 | 0.22 | 0.205 | 0.196 | 0.241 | 0.864 | 0.836 | 0.685 | 0.561 | 0.521 | 0.854 | 0.843 | 0.729 | 0.87 | 0.804
